Assay results published in PubChem BioAssay (NCI).
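Cells were grown in 96-well plates and exposed to each compound for 48 hours at five concentrations; endpoints were interpolated linearly between bracketing concentrations, or set to the highest concentration if not reached. Definition used: TGI = concentration required for complete inhibition of growth.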

How the values were obtained:
Assay in all cases: NCI tumour cell line growth inhibition, 48 h
BT-549 breast = tested on: BT-549 breast
MDA-N = tested on: MDA-N
NCI-H23 lung = tested on: NCI-H23 lung
SF-539 CNS = tested on: SF-539 CNS
KM12 colon = tested on: KM12 colon
NCI-H522 lung = tested on: NCI-H522 lung
U251 CNS = tested on: U251 CNS
UACC-257 melanoma = tested on: UACC-257 melanoma
MALME-3M melanoma = tested on: MALME-3M melanoma
HCT-116 colon = tested on: HCT-116 colon
NCI-H226 lung = tested on: NCI-H226 lung
OVCAR-8 ovarian = tested on: OVCAR-8 ovarian
EKVX NSCLC = tested on: EKVX NSCLC
ACHN renal = tested on: ACHN renal
MDA-MB-231 breast = tested on: MDA-MB-231 breast
A498 renal = tested on: A498 renal
NCI/ADR-RES ovarian = tested on: NCI/ADR-RES ovarian
MDA-MB-435 = tested on: MDA-MB-435
HCT-15 colon = tested on: HCT-15 colon
MCF7 breast = tested on: MCF7 breast
OVCAR-4 ovarian = tested on: OVCAR-4 ovarian
SK-MEL-28 melanoma = tested on: SK-MEL-28 melanoma
SK-MEL-5 melanoma = tested on: SK-MEL-5 melanoma
SNB-19 CNS = tested on: SNB-19 CNS
SR leukemia = tested on: SR leukemia
CAKI-1 renal = tested on: CAKI-1 renal
NCI-H460 lung = tested on: NCI-H460 lung
LOX IMVI melanoma = tested on: LOX IMVI melanoma
SF-268 CNS = tested on: SF-268 CNS
M14 melanoma = tested on: M14 melanoma
RXF 393 renal = tested on: RXF 393 renal
UACC-62 melanoma = tested on: UACC-62 melanoma
K-562 leukemia = tested on: K-562 leukemia
A549 NSCLC = tested on: A549 NSCLC
786-0 renal = tested on: 786-0 renal
TK-10 renal = tested on: TK-10 renal
DU-145 prostate = tested on: DU-145 prostate
IGROV1 ovarian = tested on: IGROV1 ovarian
SW-620 colon = tested on: SW-620 colon
COLO 205 colon = tested on: COLO 205 colon
SN12C renal = tested on: SN12C renal
OVCAR-5 ovarian = tested on: OVCAR-5 ovarian
HOP-92 NSCLC = tested on: HOP-92 NSCLC
SK-MEL-2 melanoma = tested on: SK-MEL-2 melanoma
UO-31 renal = tested on: UO-31 renal
MOLT-4 leukemia = tested on: MOLT-4 leukemia
RPMI-8226 leukemia = tested on: RPMI-8226 leukemia
OVCAR-3 ovarian = tested on: OVCAR-3 ovarian
HT29 colon = tested on: HT29 colon
HCC-2998 colon = tested on: HCC-2998 colon
SF-295 CNS = tested on: SF-295 CNS
HOP-62 NSCLC = tested on: HOP-62 NSCLC
PC-3 prostate = tested on: PC-3 prostate
HS 578T breast = tested on: HS 578T breast
HL-60(TB) leukemia = tested on: HL-60(TB) leukemia

Compound: Cc1ccc(-c2c(C#N)c(N)[nH]c(=S)c2C#N)cc1
- TGI (BT-549 breast): > 100 µM
- TGI (MDA-N): 41.3 µM
- TGI (NCI-H23 lung): > 100 µM
- TGI (SF-539 CNS): > 100 µM
- TGI (KM12 colon): > 100 µM
- TGI (NCI-H522 lung): 55.6 µM
- TGI (U251 CNS): > 100 µM
- TGI (UACC-257 melanoma): > 100 µM
- TGI (MALME-3M melanoma): 62.2 µM
- TGI (HCT-116 colon): > 100 µM
- TGI (NCI-H226 lung): > 100 µM
- TGI (OVCAR-8 ovarian): > 100 µM
- TGI (EKVX NSCLC): 66.1 µM
- TGI (ACHN renal): > 100 µM
- TGI (MDA-MB-231 breast): > 100 µM
- TGI (A498 renal): > 100 µM
- TGI (NCI/ADR-RES ovarian): > 100 µM
- TGI (MDA-MB-435): 65.4 µM
- TGI (HCT-15 colon): > 100 µM
- TGI (MCF7 breast): > 100 µM
- TGI (OVCAR-4 ovarian): > 100 µM
- TGI (SK-MEL-28 melanoma): > 100 µM
- TGI (SK-MEL-5 melanoma): > 100 µM
- TGI (SNB-19 CNS): > 100 µM
- TGI (SR leukemia): 66.9 µM
- TGI (CAKI-1 renal): > 100 µM
- TGI (NCI-H460 lung): > 100 µM
- TGI (LOX IMVI melanoma): > 100 µM
- TGI (SF-268 CNS): > 100 µM
- TGI (M14 melanoma): > 100 µM
- TGI (RXF 393 renal): 46.5 µM
- TGI (UACC-62 melanoma): > 100 µM
- TGI (K-562 leukemia): > 100 µM
- TGI (A549 NSCLC): > 100 µM
- TGI (786-0 renal): 77.5 µM
- TGI (TK-10 renal): > 100 µM
- TGI (DU-145 prostate): > 100 µM
- TGI (IGROV1 ovarian): > 100 µM
- TGI (SW-620 colon): > 100 µM
- TGI (COLO 205 colon): 69 µM
- TGI (SN12C renal): 76 µM
- TGI (OVCAR-5 ovarian): > 100 µM
- TGI (HOP-92 NSCLC): > 100 µM
- TGI (SK-MEL-2 melanoma): 72.6 µM
- TGI (UO-31 renal): > 100 µM
- TGI (MOLT-4 leukemia): 76.9 µM
- TGI (RPMI-8226 leukemia): 65.8 µM
- TGI (OVCAR-3 ovarian): > 100 µM
- TGI (HT29 colon): > 100 µM
- TGI (HCC-2998 colon): > 100 µM
- TGI (SF-295 CNS): > 100 µM
- TGI (HOP-62 NSCLC): > 100 µM
- TGI (PC-3 prostate): > 100 µM
- TGI (HS 578T breast): 51.4 µM
- TGI (HL-60(TB) leukemia): 52.8 µM
